US20230330021A1, “DRUG-LOADED POLYMER VESICLE HAVING ASYMMETRIC MEMBRANE STRUCTURE, PREPARATION METHOD THEREFOR, AND APPLICATION THEREOF IN PREPARATION OF DRUGS FOR TREATING ACUTE MYELOID LEUKEMIA” (SOOCHOW UNIVERSITY, priority 2020, published 2023)
Counter-ions that a name gives are not always drawn.

Experiments:
[1] = test system: orthotopic MV4-11-GFP-Luc-bearing mice; test: Antitumor effect of A6-cPS-DNR in orthotopic AML model; type: in vivo; conditions: DNR 2 mg/kg
Method: (§1) Construction of an in situ MV4-11-GFP-Luc acute myeloid leukemia mouse model: All animal experiments and operations were approved by the Experimental Animal Center of Soochow University and the Animal Care and Use Committee of Soochow University. […] Mice were first irradiated with X-rays (2.0 Gy), then the antibody CD122 (10 mg/kg mouse) was injected intraperitoneally, and 6 hours later, MV4-11-GFP-Luc cells (1×10^5 cells/mouse) injected into mice by tail vein. After inoculation, the proliferation and proliferation of leukemia cells in mice were observed by in vivo imaging of small animals (FIG. 12).
Antitumor effect of A6-cPS-DNR in orthotopic MV4-11-GFP-Luc-bearing mice: To study the antitumor effect of A6-cPS-DNR on orthotopic MV4-11-GFP-Luc-bearing mice Tumor effect (refer to Example 11 for the design scheme). The DNR dose was 2 mg/kg, and A6-cPS-DNR was increased by 3 mg/kg in a high-dose group. The blank control group was injected with 100 µL PBS. There were 3 tumor-bearing mice in each group.

YNH-1 = test: Cell proliferation inhibition assay (CCK8 method); type: cell-based; conditions: CD44-negative YNH-1
OCI-AML-3 = test: Cell proliferation inhibition assay (CCK8 method); type: cell-based; conditions: CD44-negative OCI-AML-3
MV4-11 cells [2] = test: Apoptosis, AnnexinV/PI flow cytometry; type: cell-based; conditions: VCR 10 ng/mL
Method: A6-cPS-VCR-targeted polymer vesicle nanomedicine induces apoptosis and cell cycle: First, MV4-11 cells were plated in a 24-well plate at a density of 2 × 10^5 cells/well and cultured for 24 hours. 20 µL of A6-cPS-VCR, cPS-VCR or VCR (concentration of VCR was 10 ng/mL) was added, respectively, and 20 µL of PBS was added to the control group. After 4 hours of incubation, the supernatant was removed by centrifugation (3000 rpm, 10 minutes), then fresh RPMI-1640 complete medium was added, the cells were blown off and placed in the incubator for a further 44 hours. Cells were collected in a flow tube, centrifuged (800 rpm, 5 min) and washed twice with 4° C. cold PBS. Finally, 200 µL of binding buffer was added to resuspend the cells. After pipetting evenly, taken 100 µL of it into the flow tube, added 5 µL of AnnexinV-F647 and 10 µL of PI solution in sequence, and stain at room temperature for 15 minutes in the dark, then add 400 µL of PBS and mix evenly to stop the staining, and detection by a flow cytometer within 1 hour. Among them, the cells that were treated in a 50° C. water bath for 5 minutes and fixed with 4% paraformaldehyde for 5 minutes were added with 5 µL of AnnexinV-F647 solution and 10 µL of PI solution for staining for 15 minutes respectively. Cytometer for testing.

MV4-11 cells [3] = test: Cell cycle, PI flow cytometry; type: cell-based; conditions: VCR 10 ng/mL
Method: The cell culture and treatment of the cell cycle experiment of A6-cPS-VCR refer to the above method, and only add 1 mL of PBS to resuspend the cells at the end. Then, 4 mL of ice 95% ethanol was added to fix the cells for 12 hours, and 400 µL of PI staining solution was added for 30 minutes in the dark on a shaker at 37° C. Finally, the cells were tested by flow cytometry.

[4] = test system: orthotopic MV4-11-GFP-Luc-bearing mice; test: Antitumor effect of A6-cPS-VCR in orthotopic AML model; type: in vivo
Method: as §1
Antitumor effect of A6-cPS-VCR in orthotopic MV4-11-GFP-Luc-bearing mice: To study the antitumor effect of A6-cPS-VCR on orthotopic MV4-11-GFP-Luc bearing mice Tumor effect, the following treatment plan was designed (FIG. 14): the first injection was injected on the 6th day after the inoculation, which was counted as the 0th day, and the second injection was given on the 2nd day. The dose of VCR was 0.50 mg/kg, and the control group was injected with 100 µL PBS. There were 10 tumor-bearing mice in each group. […] Mice lose weight before dying. […] And cPS-VCR (11 days), prolonged 1.5-2.7 times.
In order to further accurately and quantitatively analyze the proliferation of leukemia cells in mice, on the 4th day, 3 mice in each group were randomly selected for dissection, and the leukocytes in the liver, spleen and bone marrow were extracted, and the content of leukemia cells was detected by flow cytometry. And the liver, spleen and bone marrow slices were analyzed to observe the damage.
Acute myeloid leukemia cells abnormally proliferate in the bone marrow of mice, resulting in osteolytic lesions in mice. Therefore, micro-CT was used to evaluate the relevant indexes of the femur of each group of mice.

Question: `COc1cccc2c1C(=O)c1c(O)c3c(c(O)c1C2=O)C[C@@](O)(C(C)=O)C[C@@H]3O[C@H]1C[C@H](N)[C@H](O)[C@H](C)O1` [DNR, daunorubicin] was tested. Which “fluorescence quantification, bioluminescence imaging” value [1] did it give?
Answer: decreased slightly

Question: With `CC[C@]1(O)C[C@H]2CN(CCc3c([nH]c4ccccc34)[C@@](C(=O)OC)(c3cc4c(cc3OC)N(C=O)[C@H]3[C@@](O)(C(=O)OC)[C@H](OC(C)=O)[C@]5(CC)C=CCN6CC[C@]43[C@@H]65)C2)C1` [VCR, vincristine sulfate] as the compound, how does the proliferation inhibition (YNH-1) read?
Answer: no significant difference

Question: And the proliferation inhibition (OCI-AML-3)?
Answer: no significant difference

Question: What about the apoptosis (MV4-11 cells [2]) of the same compound?
Answer: 16.7%

Question: What about the “effect on cell cycle” value (MV4-11 cells [3]) of the same compound?
Answer: arresting cells in G2/M phase

Question: And the “leukemia levels in the liver, spleen and bone marrow, flow cytometry” value ([4]; 4th day, 3 mice per group)?
Answer: reduced

Question: What about the median survival time ([4]; VCR 0.50 mg/kg) of the same compound?
Answer: 9 days

Question: What about the “proliferation of MV4-11-GFP-Luc cells, bioluminescence imaging” value ([4]; VCR 0.50 mg/kg, injections day 0 and day 2) of the same compound?
Answer: proliferated slowly during drug administration, but proliferated rapidly after drug withdrawal
